The record followed here is patent US20230149383A1, “QUINOLINE COMPOUNDS FOR TREATING LUNG, LIVER, AND KIDNEY DISEASES, DISORDERS, OR CONDITIONS” (Aldeyra Therapeutics, Inc., priority 2020, published 2023).

The term Cmax denotes the peak of the concentration-time curve.

“Also recorded” adds a separate entry of the source. Read-outs that look alike come from different tables or passages of the source.

Data set [1] concerns STAM mouse model (NASH/HCC). Nature of the data set: STAM mouse model (NASH/HCC). In kind it is in vivo. The source says: The STAM™ model is a model that recapitulates the same disease progression as human NASH/HCC. In this model, male C57BL/6 mice aged two days are given a single dose of streptozotocin to reduce insulin secretory capacity. When the mice turn four weeks of age they start a high-fat diet feeding. This model has a background of late type 2 diabetes which progresses into fatty liver, NASH, fibrosis and consequently liver cancer (HCC). Compared to other NASH-HCC model mice, the disease progresses in a relatively short period of time, and liver cancer is developed in 100% of animals at 20 weeks of age. The model is widely used in NASH research, with more than 40 papers and 70 international conferences published using data from the STAM™ model so far. STAM™ model is able to reproduce many of the pathological features of human NASH. For example: ballooning degeneration of cells, a characteristic pathological feature of human NASH; burned-out NASH, in which lipid droplets decrease as fibrosis progresses; progression of fibrosis occurring around the central vein; a mild rise in ALT (a liver injury marker); increase in NASH markers such as CK-18; increase in human HCC markers such as glutamine synthase, glypican-3 and AFP have been observed.
In a STAM mouse model (NASH/HCC), animals at birth are given a low dose of STZ (200 ug) and then at 3 to 4 weeks these animals are fed a high fat diet. In the progression of the animal model, at 5 weeks fatty liver is evident, 7 weeks NASH is evident, 9 weeks fibrosis is evident, and at 10 weeks nodules are evident and necropsy is performed. In this study, three groups vehicle (0.5% methylcellulose) alone, BID (200 mg/kg in vehicle, BID=twice a day), and QID (200 mg/kg in vehicle, QID=[…]), dosing began at 4 weeks and continued to week ten of the animal model.

Data set [2] in a line: Phase 1 trial, pharmacokinetics in healthy volunteers. In kind it is in vivo, human. As to conditions: for Cmax / AUC / half-life: human, in vivo; for AUC: read-out: 0 to 12 hour area under the curve (AUCtau). Here is the method:
Healthy volunteers were dosed with 600 mg of compound I-1 BID for 10 days in the top (highest) dose cohort. […] The 0 to 12 hour area under the curve (AUCtau) was 5710 h*ng/mL (61.5% CV) on Day 1 and 6,800 h*ng/mL (37.9% CV) on Day 10.

The subject of data set [3] is human precision cut liver slices (PCLS). Nature of the data set: Alcoholic liver injury model in precision-cut liver slices (PCLS). The data set is classed as cell-based. The source says: Alcohol abuse results in liver injury, including accumulation of RASP and an increase in inflammation. It is known to cause abnormalities in liver structure and function, including fatty liver, apoptosis, necrosis, fibrosis, and cirrhosis. In order to investigate the utility of the quinoline compounds described herein for reduction of RASP and/or treating liver and associated inflammatory disorders, we employed a known in vitro culture model that employs precision-cut liver slices (PCLS) to measure alcohol-induced liver injury. For this experiment, we used a liver sample donated from a […] with fibrosis. This experiment may also be performed on rat PCLS (procedure provided below). The model is described, for example in Klassen, L. W. et al., Biochemical Pharmacology 76 (2008), 426-436. In this model, PCLS retains excellent viability as determined by lactate dehydrogenase and adenosine triphosphate (ATP) levels over a 96-h period of incubation. The major enzymes of ethanol detoxification (alcohol dehydrogenase, aldehyde dehydrogenase, and cytochrome P4502E1), remain active and PCLS readily metabolizes ethanol and produces acetaldehyde. […] These PCLS secrete albumin, and albumin secretion was decreased by ethanol treatment. All of these impairments are reversed following the addition of 4-methylpyrazole, which is an inhibitor of ethanol metabolism. Therefore, this model system appears to mimic the ethanol-induced changes in the liver that have been previously reported in human and animal studies, and appears to be a useful model for the study of alcoholic liver disease.
Materials and Methods. For human PCLS studies, slices were cut as described below and incubated with conditions below for 24, 48, or 72 hours. Media were changed daily. • Control Media • 25 mM Ethanol Media. • Control Media+10 μM compound I-1 (7 μl of the 5 mg/ml I-1 solution in 1.7 ml) • Ethanol Media+10 μM compound I-1
Incubation of slices with ethanol is performed as follows. Following pre-incubation with WE, slices are incubated with media only (control), media+25 mM ethanol (ethanol), media+25 mM ethanol+0.50 mM 4-methylpyrazole as an optional positive control (ethanol +4-MP), media+0.50 mM 4-methylpyrazole (control+4-MP), control media+test compound, or ethanol media+test compound. The addition of 4-MP may be used in these studies as it is a general inhibitor of ethanol metabolism. The slices are placed in the Dynamic Organ Culture incubator and cultured at 37 C for up to 96 h, and every 24 h the appropriate media is replenished. In order to determine the concentration of ethanol and acetaldehyde in the media, the supernatant is analyzed using headspace gas chromatography.
Viability assays are performed as follows. Slice viability is determined by measuring adenosine triphosphate (ATP) and lactate dehydrogenase (LDH) levels. For the ATP assay, slices are harvested at the appropriate times, placed into 70% ethanol/2 mM EDTA, flash frozen, and stored at −70 C until assayed. Samples are thawed on ice, sonicated, and diluted in 0.1 M Tris-HCl/2 mM EDTA prior to use in a standard ATP assay kit.
For LDH determination, supernatant is collected and frozen at −70 C. The slice is solubilized in WE containing 2% Triton X-100 and LDH determined using a cytotoxicity detection kit (LDH) (e.g., available from Roche Applied Science, Penzberg, Germany). The absorbance of the samples is measured at 490 nm. All protein concentrations from the slices are determined using a BCA protein assay kit. To calculate the % Cytotoxicity at subsequent 24 h time points, the LDH in the media is divided by the total LDH in the PCLS and multiplied by 100.
Triglyceride analysis is performed as follows. At indicated time points, supernatant is removed and slices are washed in PBS (pH 7.4). Slices are placed in PBS containing 0.5% Triton-X100, sonicated, and the equivalent of […] of protein assayed for triglycerides using the serum triglyceride kit. […]

In data set [4] the test system is delayed rectifier potassium current. Nature of the data set: In vitro inhibition of the delayed rectifier potassium current. The data set is classed as cell-based.
The mark [5] stands for this setting: 200 mg/kg in 0.5% methylcellulose, BID and QID groups, week 4 to 10.

For `CC(C)(O)c1nc2ccccc2cc1N` [I-1], the hepatic fibrosis result in data set [1] (setting [5]) is “significantly reduced; also recorded: significant reduction”. Also, the hepatic triglycerides result in data set [1] (setting [5]) is given as “significantly reduced; also recorded: significant reduction”. In addition, the body weight gain entry in data set [1] (200 mg/kg in methylcellulose, BID and QID (FIG. 10: QD or BID), vs vehicle) is on record as “statistically significant reduction”. Further, the “accumulation of the drug” value in data set [2] (across all cohorts) is “Little to no accumulation”. The “correlation of Cmax and AUC with dose” value in data set [2] (as dose increased) was “linear correlation”. In addition, the increase in clearance result in data set [2] (between Day 1 and Day 10) is “no significant increase in clearance”. For the same compound, the Cmax in data set [2] (600 mg, 600 mg BID, Day 1) was found to be 1920 ng/mL; in data set [2] (600 mg, 600 mg BID, Day 10), 1460 ng/mL. Besides, the AUC in data set [2] (600 mg, 600 mg BID, Day 1) was 5710 ng·h/mL; in data set [2] (600 mg, 600 mg BID, Day 10), 6800 ng·h/mL. Also, the half-life in data set [2] (600 mg, 600 mg BID, Day 1, read-out: half-life (converted)) is 3.98 h; in data set [2] (600 mg, 600 mg BID, Day 10, read-out: half-life (converted)) it was 4.56 h; in data set [2] (multiple day exposures, across cohorts, read-out: half-life (t1/2), mean values), 3.07 to 6.2 h. Further, the cyp autoinduction entry in data set [2] (over the course of 10 days) is given as “no cyp autoinduction was observed”. Also, the “overall effect on cellular stress and toxicity in response to ethanol” value in data set [3] was “acts as a chemoprotectant to reduce cellular stress and toxicity”. The triglyceride levels entry in data set [3] (10 μM I-1 + 25 mM ethanol, 24, 48, 72 h) was “significantly decreased”. Further, in data set [3] (10 μM I-1, 24, 48, 72 h), the acetaldehyde levels result is “appear to be decreased”. The ATP levels entry is given as “remain constant” in data set [3] (10 μM I-1, 24 and 48 hours); “increase” in data set [3] (10 μM I-1, 72 hours). In addition, the “cytotoxicity (LDH) levels” value in data set [3] (ethanol treated + 10 μM I-1) was “continued to drop”. The “potential to inhibit the delayed rectifier potassium current” value in data set [4] is “very low potential”.
